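Growth conditions: 96-well plates. Treatment: test compound, 48 hours, 5 concentrations. Analysis: linear interpolation between bracketing concentrations; unreached endpoints set to highest concentration. TGI marks complete inhibition of growth.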
Columns and labels:
Assay in all cases: NCI tumour cell line growth inhibition, 48 h
U251 CNS = test system: U251 CNS
SNB-19 CNS = test system: SNB-19 CNS
RXF 393 renal = test system: RXF 393 renal
COLO 205 colon = test system: COLO 205 colon
HCT-116 colon = test system: HCT-116 colon
OVCAR-5 ovarian = test system: OVCAR-5 ovarian
CAKI-1 renal = test system: CAKI-1 renal
LOX IMVI melanoma = test system: LOX IMVI melanoma
DLD-1 colon = test system: DLD-1 colon
P388 leukemia = test system: P388 leukemia
HOP-62 NSCLC = test system: HOP-62 NSCLC
K-562 leukemia = test system: K-562 leukemia
MALME-3M melanoma = test system: MALME-3M melanoma
HL-60(TB) leukemia = test system: HL-60(TB) leukemia
A498 renal = test system: A498 renal
KM12 colon = test system: KM12 colon
SF-295 CNS = test system: SF-295 CNS
SF-539 CNS = test system: SF-539 CNS
NCI-H460 lung = test system: NCI-H460 lung
SK-MEL-28 melanoma = test system: SK-MEL-28 melanoma
SF-268 CNS = test system: SF-268 CNS
SNB-75 CNS = test system: SNB-75 CNS
SK-MEL-2 melanoma = test system: SK-MEL-2 melanoma
RPMI-8226 leukemia = test system: RPMI-8226 leukemia
XF 498 CNS = test system: XF 498 CNS
UO-31 renal = test system: UO-31 renal
CCRF-CEM leukemia = test system: CCRF-CEM leukemia
M19-MEL melanoma = test system: M19-MEL melanoma
MCF7 breast = test system: MCF7 breast
OVCAR-8 ovarian = test system: OVCAR-8 ovarian
NCI/ADR-RES ovarian = test system: NCI/ADR-RES ovarian
P388/ADR leukemia = test system: P388/ADR leukemia
SN12K1 renal = test system: SN12K1 renal
NCI-H23 lung = test system: NCI-H23 lung
MOLT-4 leukemia = test system: MOLT-4 leukemia
IGROV1 ovarian = test system: IGROV1 ovarian
UACC-62 melanoma = test system: UACC-62 melanoma
EKVX NSCLC = test system: EKVX NSCLC
HCC-2998 colon = test system: HCC-2998 colon
UACC-257 melanoma = test system: UACC-257 melanoma
KM20L2 colon = test system: KM20L2 colon
SW-620 colon = test system: SW-620 colon
SK-OV-3 ovarian = test system: SK-OV-3 ovarian
NCI-H226 lung = test system: NCI-H226 lung
SN12C renal = test system: SN12C renal
NCI-H522 lung = test system: NCI-H522 lung
OVCAR-3 ovarian = test system: OVCAR-3 ovarian
HT29 colon = test system: HT29 colon
HOP-92 NSCLC = test system: HOP-92 NSCLC
DMS 273 small cell lung = test system: DMS 273 small cell lung
SNB-78 CNS = test system: SNB-78 CNS
SK-MEL-5 melanoma = test system: SK-MEL-5 melanoma
A549 NSCLC = test system: A549 NSCLC
HCT-15 colon = test system: HCT-15 colon
OVCAR-4 ovarian = test system: OVCAR-4 ovarian
ACHN renal = test system: ACHN renal
DMS 114 small cell lung = test system: DMS 114 small cell lung
HOP-18 NSCLC = test system: HOP-18 NSCLC
786-0 renal = test system: 786-0 renal
SR leukemia = test system: SR leukemia
RXF-631 renal = test system: RXF-631 renal
TK-10 renal = test system: TK-10 renal
M14 melanoma = test system: M14 melanoma
LXFL 529 NSCLC = test system: LXFL 529 NSCLC

COc1ccc2c(c1O)-c1cc(O)cc3c1[C@@H](C2)N(C)CC3
TGI (U251 CNS): 250 µM
TGI (SNB-19 CNS): 378 µM
TGI (RXF 393 renal): 119 µM
TGI (COLO 205 colon): 106 µM
TGI (HCT-116 colon): 49.9 µM
TGI (OVCAR-5 ovarian): 63.3 µM
TGI (CAKI-1 renal): 142 µM
TGI (LOX IMVI melanoma): 142 µM
TGI (DLD-1 colon): 121 µM
TGI (P388 leukemia): 106 µM
TGI (HOP-62 NSCLC): 106 µM
TGI (K-562 leukemia): 241 µM
TGI (MALME-3M melanoma): 126 µM
TGI (HL-60(TB) leukemia): 191 µM
TGI (A498 renal): 125 µM
TGI (KM12 colon): 114 µM
TGI (SF-295 CNS): 145 µM
TGI (SF-539 CNS): 153 µM
TGI (NCI-H460 lung): 150 µM
TGI (SK-MEL-28 melanoma): 157 µM
TGI (SF-268 CNS): 229 µM
TGI (SNB-75 CNS): 124 µM
TGI (SK-MEL-2 melanoma): 43.4 µM
TGI (RPMI-8226 leukemia): 286 µM
TGI (XF 498 CNS): 160 µM
TGI (UO-31 renal): 103 µM
TGI (CCRF-CEM leukemia): 262 µM
TGI (M19-MEL melanoma): 128 µM
TGI (MCF7 breast): 129 µM
TGI (OVCAR-8 ovarian): 8.27 µM
TGI (NCI/ADR-RES ovarian): 227 µM
TGI (P388/ADR leukemia): 180 µM
TGI (SN12K1 renal): 122 µM
TGI (NCI-H23 lung): 257 µM
TGI (MOLT-4 leukemia): 211 µM
TGI (IGROV1 ovarian): 139 µM
TGI (UACC-62 melanoma): 136 µM
TGI (EKVX NSCLC): 187 µM
TGI (HCC-2998 colon): 139 µM
TGI (UACC-257 melanoma): 138 µM
TGI (KM20L2 colon): 31.2 µM
TGI (SW-620 colon): 145 µM
TGI (SK-OV-3 ovarian): 289 µM
TGI (NCI-H226 lung): 108 µM
TGI (SN12C renal): 183 µM
TGI (NCI-H522 lung): 255 µM
TGI (OVCAR-3 ovarian): 84.2 µM
TGI (HT29 colon): 223 µM
TGI (HOP-92 NSCLC): 73.6 µM
TGI (DMS 273 small cell lung): 127 µM
TGI (SNB-78 CNS): 212 µM
TGI (SK-MEL-5 melanoma): 122 µM
TGI (A549 NSCLC): 138 µM
TGI (HCT-15 colon): 140 µM
TGI (OVCAR-4 ovarian): 125 µM

CC1=Nc2ccccc2NC(c2ccoc2)C1 (stereo not given)
TGI (U251 CNS): > 100 µM
TGI (SNB-19 CNS): > 100 µM
TGI (RXF 393 renal): > 100 µM
TGI (COLO 205 colon): > 100 µM
TGI (HCT-116 colon): > 100 µM
TGI (OVCAR-5 ovarian): > 100 µM
TGI (CAKI-1 renal): > 100 µM
TGI (LOX IMVI melanoma): > 100 µM
TGI (DLD-1 colon): > 100 µM
TGI (HOP-62 NSCLC): > 100 µM
TGI (K-562 leukemia): > 100 µM
TGI (MALME-3M melanoma): > 100 µM
TGI (HL-60(TB) leukemia): > 100 µM
TGI (ACHN renal): > 100 µM
TGI (A498 renal): > 100 µM
TGI (KM12 colon): > 100 µM
TGI (DMS 114 small cell lung): > 100 µM
TGI (HOP-18 NSCLC): > 100 µM
TGI (SF-295 CNS): > 100 µM
TGI (SF-539 CNS): > 100 µM
TGI (NCI-H460 lung): > 100 µM
TGI (SK-MEL-28 melanoma): > 100 µM
TGI (SF-268 CNS): > 100 µM
TGI (SNB-75 CNS): > 100 µM
TGI (786-0 renal): > 100 µM
TGI (SK-MEL-2 melanoma): > 100 µM
TGI (RPMI-8226 leukemia): > 100 µM
TGI (UO-31 renal): > 100 µM
TGI (CCRF-CEM leukemia): > 100 µM
TGI (M19-MEL melanoma): > 100 µM
TGI (SR leukemia): > 100 µM
TGI (OVCAR-8 ovarian): > 100 µM
TGI (NCI-H23 lung): > 100 µM
TGI (MOLT-4 leukemia): > 100 µM
TGI (IGROV1 ovarian): > 100 µM
TGI (UACC-62 melanoma): > 100 µM
TGI (EKVX NSCLC): > 100 µM
TGI (HCC-2998 colon): > 100 µM
TGI (UACC-257 melanoma): > 100 µM
TGI (KM20L2 colon): > 100 µM
TGI (SW-620 colon): > 100 µM
TGI (SK-OV-3 ovarian): > 100 µM
TGI (NCI-H226 lung): > 100 µM
TGI (SN12C renal): > 100 µM
TGI (NCI-H522 lung): > 100 µM
TGI (OVCAR-3 ovarian): > 100 µM
TGI (RXF-631 renal): > 100 µM
TGI (HT29 colon): > 100 µM
TGI (HOP-92 NSCLC): > 100 µM
TGI (DMS 273 small cell lung): > 100 µM
TGI (SNB-78 CNS): > 100 µM
TGI (SK-MEL-5 melanoma): > 100 µM
TGI (A549 NSCLC): > 100 µM
TGI (HCT-15 colon): > 100 µM
TGI (TK-10 renal): > 100 µM
TGI (OVCAR-4 ovarian): > 100 µM
TGI (M14 melanoma): > 100 µM
TGI (LXFL 529 NSCLC): > 100 µM

Cc1cc([N+](=O)[O-])ccc1Sc1c2ccccc2nc2cc(Cl)ccc12
TGI (U251 CNS): 80.7 µM
TGI (SNB-19 CNS): > 100 µM
TGI (RXF 393 renal): > 100 µM
TGI (COLO 205 colon): > 100 µM
TGI (HCT-116 colon): 63.8 µM
TGI (OVCAR-5 ovarian): > 100 µM
TGI (CAKI-1 renal): 84 µM
TGI (LOX IMVI melanoma): 86.8 µM
TGI (DLD-1 colon): > 100 µM
TGI (HOP-62 NSCLC): > 100 µM
TGI (K-562 leukemia): > 100 µM
TGI (MALME-3M melanoma): > 100 µM
TGI (HL-60(TB) leukemia): 51 µM
TGI (ACHN renal): > 100 µM
TGI (A498 renal): > 100 µM
TGI (KM12 colon): 50.4 µM
TGI (DMS 114 small cell lung): 52.9 µM
TGI (HOP-18 NSCLC): > 100 µM
TGI (SF-295 CNS): > 100 µM
TGI (SF-539 CNS): 57.6 µM
TGI (NCI-H460 lung): > 100 µM
TGI (SK-MEL-28 melanoma): > 100 µM
TGI (SF-268 CNS): 89.5 µM
TGI (SNB-75 CNS): 89.7 µM
TGI (786-0 renal): > 100 µM
TGI (SK-MEL-2 melanoma): > 100 µM
TGI (XF 498 CNS): 91.5 µM
TGI (UO-31 renal): > 100 µM
TGI (CCRF-CEM leukemia): > 100 µM
TGI (M19-MEL melanoma): > 100 µM
TGI (SR leukemia): > 100 µM
TGI (OVCAR-8 ovarian): 57.3 µM
TGI (NCI-H23 lung): 76.9 µM
TGI (MOLT-4 leukemia): 93.7 µM
TGI (IGROV1 ovarian): > 100 µM
TGI (UACC-62 melanoma): > 100 µM
TGI (EKVX NSCLC): > 100 µM
TGI (HCC-2998 colon): > 100 µM
TGI (UACC-257 melanoma): > 100 µM
TGI (KM20L2 colon): 44.2 µM
TGI (SW-620 colon): 93.5 µM
TGI (SK-OV-3 ovarian): > 100 µM
TGI (NCI-H226 lung): > 100 µM
TGI (SN12C renal): 92.7 µM
TGI (NCI-H522 lung): 78.7 µM
TGI (OVCAR-3 ovarian): > 100 µM
TGI (RXF-631 renal): > 100 µM
TGI (HOP-92 NSCLC): 76.6 µM
TGI (DMS 273 small cell lung): > 100 µM
TGI (SNB-78 CNS): > 100 µM
TGI (SK-MEL-5 melanoma): > 100 µM
TGI (A549 NSCLC): > 100 µM
TGI (HCT-15 colon): > 100 µM
TGI (TK-10 renal): > 100 µM
TGI (OVCAR-4 ovarian): > 100 µM
TGI (M14 melanoma): > 100 µM
TGI (LXFL 529 NSCLC): > 100 µM
